From ChEMBL document CHEMBL5108051, “Improving the Antimicrobial Performance of Amphiphilic Cationic Antimicrobial Peptides Using Glutamic Acid Full-Scan and Positive Charge Compensation Strategies” (J Med Chem, 2022)
Values after ≈ are worked out from the molar mass of the structure shown. Active and inactive are the calls of the source. The calls are words filed in the database; no cut-off is given here. Peptide text beside a SMILES is read from it.

Tests used:
[1] = test system: Staphylococcus aureus; test: Antibacterial activity against rifampin resistant Staphylococcus aureus ATCC 25923 assessed as fractional inhibitory concentration index in presence of kanamycin by checkerboard assay; type: functional
[2] = test system: Cell membrane; test: Induction of cytoplasmic membrane depolarization in Escherichia coli ATCC 25922 assessed as increase in fluorescence intensity measured within 1 min by DiSC3-5 dye based fluorescence method; type: subcellular
[3] = test system: Cell membrane; test: Induction of outer membrane permeabilization to NPN in Escherichia coli ATCC 25922 cells assessed as increase in fluorescence intensity by NPN fluorescent dye based microplate reader assay; type: subcellular
[4] = test system: Escherichia coli; test: Antibacterial activity against rifampin resistant Escherichia coli ATCC 25922 assessed as fractional inhibitory concentration index in presence of kanamycin by checkerboard assay; type: functional
[5] = Stability of the compound in mouse serum at 10 mM assessed as half life by RP-HPLC analysis; type: ADME, cell-free
[6] = test system: Erythrocyte; test: Hemolytic activity against mouse RBC measured after 1 hrs; type: toxicity, cell-based
[7] = test system: Escherichia coli; test: Antibacterial activity against gentamicin resistant Escherichia coli ATCC 25922 assessed as fractional inhibitory concentration index in presence of vancomycin by checkerboard assay; type: functional
[8] = test system: Escherichia coli; test: Antibacterial activity against rifampin resistant Escherichia coli ATCC 25922 assessed as fractional inhibitory concentration index in presence of gentamicin by checkerboard assay; type: functional
[9] = test system: Staphylococcus aureus; test: Antibacterial activity against gentamicin resistant Staphylococcus aureus ATCC 25923 assessed as fractional inhibitory concentration index in presence of kanamycin by checkerboard assay; type: functional
[10] = Retention time of the compound by RP-HPLC analysis; type: physicochemical
[11] = test system: Staphylococcus aureus; test: Antibacterial activity against gentamicin resistant Staphylococcus aureus ATCC 25923 assessed as fractional inhibitory concentration index in presence of rifampin by checkerboard assay; type: functional
[12] = test system: Cell membrane; test: Induction of cell membrane disruption in Staphylococcus aureus ATCC 25923 assessed as cell morphological damage measured after 120 mins by […] electron microscope analysis; type: subcellular
[13] = test system: Klebsiella pneumoniae; test: Antibacterial activity against Klebsiella pneumoniae ATCC 700603 assessed as growth inhibition measured after 18 to 24 hrs by CLSI based broth microdilution method; type: functional; conditions: time 18-24 hrs
[14] = test system: Staphylococcus aureus; test: Antibacterial activity against Staphylococcus aureus ATCC 25923 assessed as fractional inhibitory concentration index in presence of kanamycin by checkerboard assay; type: functional
[15] = test system: Escherichia coli; test: Antibacterial activity against gentamicin resistant Escherichia coli ATCC 25922 assessed as fractional inhibitory concentration index in presence of rifampin by checkerboard assay; type: functional
[16] = test system: Cell membrane; test: Induction of cell membrane disruption in Escherichia coli ATCC 25922 assessed as cell morphological damage measured after 120 mins by […] electron microscope analysis; type: subcellular
[17] = test system: Escherichia coli; test: Antibacterial activity against rifampin resistant Escherichia coli ATCC 25922 assessed as fractional inhibitory concentration index in presence of rifampin by checkerboard assay; type: functional
[18] = Acute toxicity in BALB/c mouse assessed as pathological changes in liver at 20 to 80 mg/kg, ip administered as single dose measured for 7 days by H and E staining method; type: organism-based; conditions: in vivo, 168 h, dose 20-80 mg/kg, time 7 day
[19] = test system: Staphylococcus aureus; test: Antibacterial activity against gentamicin resistant Staphylococcus aureus ATCC 25923 assessed as fractional inhibitory concentration index in presence of gentamicin by checkerboard assay; type: functional
[20] = test system: Cell membrane; test: Induction of cell membrane disruption in Escherichia coli ATCC 25922 assessed as increase in PI uptake measured after 30 to 120 mins by propidium iodide staining based FACS flow cytometry analysis (reference value: 6.0 %); type: subcellular; conditions: time 30-120 min
[21] = test system: Cell membrane; test: Induction of cell membrane disruption in Escherichia coli ATCC 25922 assessed as cell morphological damage measured after 30 mins by […] electron microscope analysis; type: subcellular
[22] = test system: Escherichia coli; test: Antibacterial activity against gentamicin resistant Escherichia coli ATCC 25922 assessed as fractional inhibitory concentration index in presence of kanamycin by checkerboard assay; type: functional
[23] = test system: Staphylococcus aureus; test: Antibacterial activity against Staphylococcus aureus ATCC 25923 assessed as fractional inhibitory concentration index in presence of gentamicin by checkerboard assay; type: functional
[24] = test system: Pseudomonas aeruginosa; test: Antibacterial activity against Pseudomonas aeruginosa ATCC 27853 assessed as growth inhibition measured after 18 to 24 hrs by CLSI based broth microdilution method; type: functional; conditions: time 18-24 hrs
[25] = test system: Staphylococcus aureus; test: Antibacterial activity against Staphylococcus aureus ATCC 25923 assessed as fractional inhibitory concentration index in presence of vancomycin by checkerboard assay; type: functional
[26] = test system: Staphylococcus aureus; test: Antibacterial activity against rifampin resistant Staphylococcus aureus ATCC 25923 assessed as fractional inhibitory concentration index in presence of vancomycin by checkerboard assay; type: functional
[27] = test system: Staphylococcus aureus; test: Antibacterial activity against Staphylococcus aureus ATCC 25923 assessed as resistance development measured after 15 passages at sub-MIC concentration by resistance development assay; type: functional, organism-based
[28] = test system: Escherichia coli; test: Antibacterial activity against Escherichia coli ATCC 25922 assessed as fractional inhibitory concentration index in presence of gentamicin by checkerboard assay; type: functional
[29] = Acute toxicity in BALB/c mouse assessed as mortality at 80 mg/kg, ip administered as single dose measured for 7 days; type: organism-based; conditions: BALB/c, in vivo, time 7 day, read-out: Activity
[30] = test system: Staphylococcus aureus; test: Antibacterial activity against rifampin resistant Staphylococcus aureus ATCC 25923 assessed as fractional inhibitory concentration index in presence of gentamicin by checkerboard assay; type: functional
[31] = test system: Escherichia coli; test: Antibacterial activity against Escherichia coli ATCC 25922 assessed as fractional inhibitory concentration index in presence of kanamycin by checkerboard assay; type: functional
[32] = test system: Staphylococcus aureus; test: Induction of cell membrane damage in Staphylococcus aureus ATCC 25923 assessed as increase in nucleic acid leakage by microplate reader assay; type: functional, organism-based; conditions: time 0-6 hrs, TDE = time-dependent effect
[33] = test system: Escherichia coli; test: Induction of cell membrane damage in Escherichia coli ATCC 25922 assessed as increase in nucleic acid leakage by microplate reader assay; type: functional, organism-based; conditions: time 0-6 hrs, TDE = time-dependent effect
[34] = test system: Bacillus subtilis; test: Antibacterial activity against Bacillus subtilis ATCC 23857 assessed as growth inhibition measured after 18 to 24 hrs by CLSI based broth microdilution method; type: functional; conditions: time 18-24 hrs
[35] = test system: Escherichia coli; test: Antibacterial activity against gentamicin resistant Escherichia coli ATCC 25922 assessed as fractional inhibitory concentration index in presence of gentamicin by checkerboard assay; type: functional
[36] = test system: Escherichia coli; test: Antibacterial activity against Escherichia coli ATCC 25922 assessed as fractional inhibitory concentration index in presence of vancomycin by checkerboard assay; type: functional
[37] = test system: Cell membrane; test: Induction of inner membrane permeabilization in Escherichia coli ML-35 ATCC 43837 assessed as increase in absorbance at 1 to 4 times MIC measured at 420 nm in presence of ONPG by microplate reader assay; type: subcellular; conditions: DDE = dose-dependent effect
[38] = test system: Staphylococcus aureus; test: Antibacterial activity against rifampin resistant Staphylococcus aureus ATCC 25923 assessed as fractional inhibitory concentration index in presence of rifampin by checkerboard assay; type: functional
[39] = test system: Cell membrane; test: Induction of outer membrane permeabilization to NPN in Staphylococcus aureus ATCC 25923 cells assessed as increase in fluorescence intensity measured within 1 min by NPN fluorescent dye based microplate reader assay; type: subcellular
[40] = test system: Escherichia coli; test: Antibacterial activity against Escherichia coli ATCC 25922 assessed as growth inhibition measured after 18 to 24 hrs by CLSI based broth microdilution method; type: functional; conditions: time 18-24 hrs

| Structure (SMILES) | fractional inhibitory concentration index (FICI) [1] | Activity [2] | Activity [3] | fractional inhibitory concentration index (FICI) [4] | half-life at 10000 µM [5] | MHC10 [6] | fractional inhibitory concentration index (FICI) [7] | fractional inhibitory concentration index (FICI) [8] | fractional inhibitory concentration index (FICI) [9] | Retention_time [10] | fractional inhibitory concentration index (FICI) [11] | Activity [12] | MIC [13] | fractional inhibitory concentration index (FICI) [14] | fractional inhibitory concentration index (FICI) [15] | Activity [16] | fractional inhibitory concentration index (FICI) [17] | Activity [18] | fractional inhibitory concentration index (FICI) [19] | Activity [20] | also measured |
| --- | --- | --- | --- | --- | --- | --- | --- | --- | --- | --- | --- | --- | --- | --- | --- | --- | --- | --- | --- | --- | --- |
| CC(C)C[C@H](NC(=O)[C@H](CC(C)C)NC(=O)[C@H](CCC(=O)O)NC(=O)[C@H](CCCCN)NC(=O)[C@H](CC(C)C)NC(=O)[C@H](CC(C)C)NC(=O)[C@H](CCCCN)NC(=O)[C@H](C)NC(=O)[C@@H](NC(=O)[C@H](CCCCN)NC(=O)[C@@H]1CCCN1C(=O)[C@H](CC(C)C)NC(=O)[C@@H](N)Cc1ccccc1)C(C)C)C(N)=O (H-FLPKVAKLLKELL-NH2) | 0.625 | Active | Active | 0.75 | 9.64 h | 202 µM | 0.75 | 0.75 | 1 | 16.475 min | 0.625 | Active | 16 µM (≈ 24.2 µg/mL) | 0.625 | 0.625 | Active | 0.75 | Non-Toxic | 0.75 | 83.1% | Activity [21]: Active; fractional inhibitory concentration index (FICI) [22]: 1.25; fractional inhibitory concentration index (FICI) [23]: 0.625; MIC [24]: 8 µM (≈ 12.1 µg/mL); fractional inhibitory concentration index (FICI) [25]: 0.75; fractional inhibitory concentration index (FICI) [26]: 1; Activity [27]: Active; fractional inhibitory concentration index (FICI) [28]: 0.5; mortality at 168 h [29]: 40%; fractional inhibitory concentration index (FICI) [30]: 0.5; fractional inhibitory concentration index (FICI) [31]: 0.625; Activity [32]: Tde; Activity [33]: Tde; MIC [34]: 4 µM (≈ 6.04 µg/mL); fractional inhibitory concentration index (FICI) [35]: 1.25; fractional inhibitory concentration index (FICI) [36]: 0.375; Activity [37]: Dde; fractional inhibitory concentration index (FICI) [38]: 0.75; Activity [39]: Active; MIC [40]: 8 µM (≈ 12.1 µg/mL) |
| CC[C@H](C)[C@H](NC(=O)[C@@H]1CCCN1C(=O)[C@H](CC(C)C)NC(=O)[C@@H](N)Cc1ccccc1)C(=O)N[C@H](C(=O)N[C@@H](C)C(=O)N[C@@H](CCCCN)C(=O)N[C@@H](CC(C)C)C(=O)N[C@@H](CC(C)C)C(=O)N[C@@H](CO)C(=O)NCC(=O)N[C@@H](CC(C)C)C(=O)N[C@@H](CC(C)C)C(N)=O)C(C)C (H-FLPIVAKLLSGLL-NH2) | 0.5625 | Active | Active | 0.625 | 5.55 h | 12.53 µM | 0.75 | 0.625 | 0.75 | 19.445 min | 0.75 | Active | > 128 µM | 0.75 | 0.625 | Active | 1 | Non-Toxic | 0.75 | 78.3% | Activity [21]: Active; fractional inhibitory concentration index (FICI) [22]: 1; fractional inhibitory concentration index (FICI) [23]: 1; MIC [24]: 128 µM (≈ 177 µg/mL); fractional inhibitory concentration index (FICI) [25]: 1.0625; fractional inhibitory concentration index (FICI) [26]: 0.75; Activity [27]: Active; fractional inhibitory concentration index (FICI) [28]: 1; mortality at 168 h [29]: 100%; fractional inhibitory concentration index (FICI) [30]: 0.5625; fractional inhibitory concentration index (FICI) [31]: 1.125; Activity [32]: Tde; Activity [33]: Tde; MIC [34]: 4 µM (≈ 5.53 µg/mL); fractional inhibitory concentration index (FICI) [35]: 1; fractional inhibitory concentration index (FICI) [36]: 0.625; Activity [37]: Dde; fractional inhibitory concentration index (FICI) [38]: 1; Activity [39]: Active; MIC [40]: 32 µM (≈ 44.2 µg/mL) |
